This passage reports IC50 results from US20210395239A1 (Hoffmann-La Roche Inc., priority 2018, published 2021).

This assay concerns the target T1, human TLR7 (Homo sapiens, UniProt Q9NYK1).
T1 construct: host or cells: HEK293 (HEK-Blue hTLR7)
T1 sequence (Q9NYK1 27-1049): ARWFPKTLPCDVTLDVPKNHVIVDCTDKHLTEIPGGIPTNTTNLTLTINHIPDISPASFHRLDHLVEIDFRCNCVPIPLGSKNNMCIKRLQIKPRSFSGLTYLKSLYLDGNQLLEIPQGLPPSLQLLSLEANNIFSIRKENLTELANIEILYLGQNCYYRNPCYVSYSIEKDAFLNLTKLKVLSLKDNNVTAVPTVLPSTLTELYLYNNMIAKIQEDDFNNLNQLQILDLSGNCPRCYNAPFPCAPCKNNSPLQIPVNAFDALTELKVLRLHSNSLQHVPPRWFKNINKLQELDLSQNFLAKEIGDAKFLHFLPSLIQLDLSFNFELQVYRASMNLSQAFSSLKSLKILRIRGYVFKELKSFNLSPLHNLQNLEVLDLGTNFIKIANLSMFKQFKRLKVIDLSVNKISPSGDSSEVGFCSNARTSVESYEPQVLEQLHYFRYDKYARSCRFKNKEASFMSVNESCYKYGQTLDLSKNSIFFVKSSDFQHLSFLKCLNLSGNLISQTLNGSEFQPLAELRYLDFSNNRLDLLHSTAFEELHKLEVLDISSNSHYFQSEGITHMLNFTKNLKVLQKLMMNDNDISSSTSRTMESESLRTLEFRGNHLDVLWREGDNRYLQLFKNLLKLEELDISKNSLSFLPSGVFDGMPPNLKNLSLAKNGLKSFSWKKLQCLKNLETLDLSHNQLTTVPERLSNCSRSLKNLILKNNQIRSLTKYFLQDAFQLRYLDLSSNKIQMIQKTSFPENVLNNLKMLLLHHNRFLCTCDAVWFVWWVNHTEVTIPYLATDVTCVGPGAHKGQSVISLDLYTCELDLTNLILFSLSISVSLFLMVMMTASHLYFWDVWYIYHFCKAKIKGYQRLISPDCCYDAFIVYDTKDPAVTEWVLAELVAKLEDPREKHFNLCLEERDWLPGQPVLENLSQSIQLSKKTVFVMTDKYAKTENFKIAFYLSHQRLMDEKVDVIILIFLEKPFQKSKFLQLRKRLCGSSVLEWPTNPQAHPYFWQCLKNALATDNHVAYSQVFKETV
In words: HEK293-Blue-hTLR-7 cells assay (SEAP reporter, R848 stimulation). Format: cell-based. To be noted: HEK293-Blue-hTLR7 cells, R848, 20 hrs; read-out: HEK/hTLR7 IC50. Put shortly:
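HEK293-Blue-hTLR7 cells (NF-κB/AP-1-driven SEAP reporter) were stimulated with R848 alongside serially diluted compound at 1% final DMSO for 20 h at 37 °C. Supernatant SEAP was then developed with QUANTI-Blue for 2 h at 37 °C and absorbance read at 620–655 nm; antagonism is measured as reduced reporter signal.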
Regarding `[2H]c1ccc2c(N3C[C@H](CN4CCN(c5ccc(N6C[C@@H]7C[C@H]6CN7)nc5)CC4)O[C@H](C)C3)ccc(C#N)c2n1` [Example 151, 2-deuterio-5-[(2S,6R)-2-[[4-[6-[(1S,4S)-2,5-diazabicyclo[2.2.1]heptan-2-yl]-3-pyridyl]piperazin-1-yl]methyl]-6-methyl-morpholin-4-yl]quinoline-8-carbonitrile], the IC50 is 35 nM.
Turning to `[2H]c1ccc2c(N3C[C@H](CN4CCN(c5ccc(N6CC7(CNCCO7)C6)nc5)CC4)O[C@H](C)C3)ccc(C#N)c2n1` [Example 152, 2-deuterio-5-[(2R,6S)-2-methyl-6-[[4-[6-(5-oxa-2,8-diazaspiro[3.5]nonan-2-yl)-3-pyridyl]piperazin-1-yl]methyl]morpholin-4-yl]quinoline-8-carbonitrile], the IC50 turned out to be 15 nM.
The result for `[2H]c1ccc2c(N3C[C@H](CN4CCN(c5ccc(N6C[C@H]7C[C@@H]6CN7)nc5)CC4)O[C@H](C)C3)ccc(C#N)c2n1` [Example 153, 2-deuterio-5-[(2S,6R)-2-[[4-[6-[(1R,4R)-2,5-diazabicyclo[2.2.1]heptan-2-yl]-3-pyridyl]piperazin-1-yl]methyl]-6-methyl-morpholin-4-yl]quinoline-8-carbonitrile] reads 32 nM; that for `C[C@@H]1CN(c2ccc(C#N)n3ncc(F)c23)C[C@H](CN2CCN(c3ccc(N4CC(C)(N)C4)nc3)CC2)O1` [Example 154, 4-[(2S,6R)-2-[[4-[6-(3-amino-3-methyl-azetidin-1-yl)-3-pyridyl]piperazin-1-yl]methyl]-6-methyl-morpholin-4-yl]-3-fluoro-pyrazolo[1,5-a]pyridine-7-carbonitrile], 32 nM; that for `[2H]c1ccc2c(N3C[C@H](CN4CCN(c5cccc(N6CC(C)(N)C6)n5)CC4)O[C@H](C)C3)ccc(C#N)c2n1` [Example 155, 5-[(2S,6R)-2-[[4-[6-(3-amino-3-methyl-azetidin-1-yl)-2-pyridyl]piperazin-1-yl]methyl]-6-methyl-morpholin-4-yl]-2-deuterio-quinoline-8-carbonitrile], 18 nM.
The same measure for `[2H]c1ccc2c(N3C[C@H](CN4CC(O)(c5ccc(N6CC(C)(N)C6)cc5)C4)O[C@H](C)C3)ccc(C#N)c2n1` [Example 156, 5-[(2S,6R)-2-[[3-[4-(3-amino-3-methyl-azetidin-1-yl)phenyl]-3-hydroxy-azetidin-1-yl]methyl]-6-methyl-morpholin-4-yl]-2-deuterio-quinoline-8-carbonitrile]: 21 nM; for `C[C@@H]1CN(c2ccc(C#N)n3nccc23)C[C@H](CN2CC(c3ccc(N4CC(C)(N)C4)nc3)C2)O1` [Example 157, 4-[(2S,6R)-2-[[3-[6-(3-amino-3-methyl-azetidin-1-yl)-3-pyridyl]azetidin-1-yl]methyl]-6-methyl-morpholin-4-yl]pyrazolo[1,5-a]pyridine-7-carbonitrile]: 8 nM.
The result for `C[C@@H]1CN(c2ccc(C#N)n3ncc(F)c23)C[C@H](CN2CC(c3ccc(N4CC(C)(N)C4)nc3)C2)O1` [Example 158, 4-[(2S,6R)-2-[[3-[6-(3-amino-3-methyl-azetidin-1-yl)-3-pyridyl]azetidin-1-yl]methyl]-6-methyl-morpholin-4-yl]-3-fluoro-pyrazolo[1,5-a]pyridine-7-carbonitrile] reads 3 nM; that for `[2H]c1ccc2c(N3C[C@H](CN4CC(c5cccc(N6CC(C)(N)C6)n5)C4)O[C@H](C)C3)ccc(C#N)c2n1` [Example 159, 5-[(2S,6R)-2-[[3-[6-(3-amino-3-methyl-azetidin-1-yl)-2-pyridyl]azetidin-1-yl]methyl]-6-methyl-morpholin-4-yl]-2-deuterio-quinoline-8-carbonitrile], 30 nM; that for `C[C@@H]1CN(c2ccc(C#N)n3ncc(F)c23)C[C@H](CN2CC(c3ccc(N4CC(C)(N)C4)cc3)C2)O1` [Example 160, 4-[(2S,6R)-2-[[3-[4-(3-amino-3-methyl-azetidin-1-yl)phenyl]azetidin-1-yl]methyl]-6-methyl-morpholin-4-yl]-3-fluoro-pyrazolo[1,5-a]pyridine-7-carbonitrile], 11 nM.
As to `[2H]c1ccc2c(N3C[C@H](CN4CCN(c5ccc(N6CC7(CN(C)C7)C6)nc5)CC4)O[C@H](C)C3)ccc(C#N)c2n1` [Example 161, 2-deuterio-5-[(2R,6S)-2-methyl-6-[[4-[6-(6-methyl-2,6-diazaspiro[3.3]heptan-2-yl)-3-pyridyl]piperazin-1-yl]methyl]morpholin-4-yl]quinoline-8-carbonitrile], the IC50 stood at 8 nM.
The same measure for `[2H]c1ccc2c(N3C[C@H](CN4CCN(c5ccc(N[C@H]6CNC[C@H]6F)nc5)CC4)O[C@H](C)C3)ccc(C#N)c2n1` [Example 162, 2-deuterio-5-[(2S,6R)-2-[[4-[6-[[(3S,4R)-4-fluoropyrrolidin-3-yl]amino]-3-pyridyl]piperazin-1-yl]methyl]-6-methyl-morpholin-4-yl]quinoline-8-carbonitrile]: 11 nM; for `C[C@@H]1CN(c2ccc(C#N)n3nccc23)C[C@H](CN2CC(c3ccc(N4CC(C)(N)C4)cc3)C2)O1` [Example 163, 4-[(2S,6R)-2-[[3-[4-(3-amino-3-methyl-azetidin-1-yl)phenyl]azetidin-1-yl]methyl]-6-methyl-morpholin-4-yl]pyrazolo[1,5-a]pyridine-7-carbonitrile]: 22 nM.
The result for `CO[C@@H]1CN(c2ccc(C3CN(C[C@H]4CN(c5ccc(C#N)n6ncc(F)c56)C[C@@H](C)O4)C3)cn2)C[C@H]1N` [Example 164, 4-[(2S,6R)-2-[[3-[6-[(3R,4R)-3-amino-4-methoxy-pyrrolidin-1-yl]-3-pyridyl]azetidin-1-yl]methyl]-6-methyl-morpholin-4-yl]-3-fluoro-pyrazolo[1,5-a]pyridine-7-carbonitrile] reads 10 nM.
The same measure for `C[C@@H]1CN(c2ccc(C#N)n3ncc(F)c23)C[C@H](CN2CC(c3ccc(N4C[C@@H]5C[C@H]4CN5)nc3)C2)O1` [Example 165, 4-[(2S,6R)-2-[[3-[6-[(1S,4S)-2,5-diazabicyclo[2.2.1]heptan-2-yl]-3-pyridyl]azetidin-1-yl]methyl]-6-methyl-morpholin-4-yl]-3-fluoro-pyrazolo[1,5-a]pyridine-7-carbonitrile]: 7 nM; for `CO[C@@H]1CN(c2ccc(N3CCN(C[C@H]4CN(c5ccc(C#N)n6ncc(F)c56)C[C@@H](C)O4)CC3)cn2)C[C@H]1N` [Example 166, 4-[(2S,6R)-2-[[4-[6-[(3R,4R)-3-amino-4-methoxy-pyrrolidin-1-yl]-3-pyridyl]piperazin-1-yl]methyl]-6-methyl-morpholin-4-yl]-3-fluoro-pyrazolo[1,5-a]pyridine-7-carbonitrile]: 21 nM.
